Test results as given in the supplement of paper PMC10307832.

Columns and labels:
Test in all cases: relative viability (nuclei count vs DMSO), 5 days (fraction); higher = more cells survive
Avagacestat + Olaparib = compound: NC(=O)[C@@H](CCC(F)(F)F)N(Cc1ccc(-c2ncon2)cc1F)S(=O)(=O)c1ccc(Cl)cc1 [Avagacestat] + O=C(c1cc(Cc2n[nH]c(=O)c3ccccc23)ccc1F)N1CCN(C(=O)C2CC2)CC1 [Olaparib] (partner 8 µM)
Outline: (§1)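 After 5 days of treatment, lung cancer cells in 1536-well plates were fixed and stained in a single step (final 0.05% Triton X-100, 1% formaldehyde, 1 ug/ml Hoechst) and their nuclei counted on 4× images. Treatment had been applied by pin tool the day after seeding as one drug alone or as a fixed anchor-drug dose with five library-drug doses (not always all listed) in √10 steps. Relative viability is the nuclei count of treated wells divided by that of vehicle wells, and values are medians of duplicate plates.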

Avagacestat + Vorinostat = compound: NC(=O)[C@@H](CCC(F)(F)F)N(Cc1ccc(-c2ncon2)cc1F)S(=O)(=O)c1ccc(Cl)cc1 [Avagacestat] + O=C(CCCCCCC(=O)Nc1ccccc1)NO [Vorinostat] (partner 1 µM)
Outline: as §1

Avagacestat + Linsitinib = compound: NC(=O)[C@@H](CCC(F)(F)F)N(Cc1ccc(-c2ncon2)cc1F)S(=O)(=O)c1ccc(Cl)cc1 [Avagacestat] + C[C@]1(O)C[C@@H](c2nc(-c3ccc4ccc(-c5ccccc5)nc4c3)c3c(N)nccn32)C1 [Linsitinib] (partner 1 µM)
Outline: as §1

Avagacestat + Pemetrexed = compound: NC(=O)[C@@H](CCC(F)(F)F)N(Cc1ccc(-c2ncon2)cc1F)S(=O)(=O)c1ccc(Cl)cc1 [Avagacestat] + Nc1nc2[nH]cc(CCc3ccc(C(=O)N[C@@H](CCC(=O)O)C(=O)O)cc3)c2c(=O)[nH]1 [Pemetrexed] (partner 0.2 µM)
Outline: as §1

Row | Cell Line | relative viability (Avagacestat + Olaparib; first compound 0.08 µM) | relative viability (Avagacestat + Olaparib; first compound 0.253 µM) | relative viability (Avagacestat + Olaparib; first compound 0.8 µM) | relative viability (Avagacestat + Olaparib; first compound 8 µM) | relative viability (Avagacestat + Vorinostat; first compound 0.08 µM) | relative viability (Avagacestat + Vorinostat; first compound 0.253 µM) | relative viability (Avagacestat + Vorinostat; first compound 0.8 µM) | relative viability (Avagacestat + Vorinostat; first compound 2.53 µM) | relative viability (Avagacestat + Vorinostat; first compound 8 µM) | relative viability (Avagacestat + Linsitinib; first compound 0.08 µM) | relative viability (Avagacestat + Linsitinib; first compound 0.253 µM) | relative viability (Avagacestat + Linsitinib; first compound 0.8 µM) | relative viability (Avagacestat + Linsitinib; first compound 2.53 µM) | relative viability (Avagacestat + Linsitinib; first compound 8 µM) | relative viability (Avagacestat + Pemetrexed; first compound 0.08 µM) | relative viability (Avagacestat + Pemetrexed; first compound 0.253 µM) | relative viability (Avagacestat + Pemetrexed; first compound 0.8 µM) | relative viability (Avagacestat + Pemetrexed; first compound 2.53 µM) | relative viability (Avagacestat + Pemetrexed; first compound 8 µM) | relative viability (Avagacestat + Olaparib; first compound 2.53 µM)
1 | SK-LU-1 | 0.472 | 0.62 | 0.515 | 0.374 | 0.885 | 0.714 | 0.865 | 0.636 | 0.71 | 1.13 | 1.3 | 1.02 | 0.918 | 0.983 | 1.19 | 0.972 | 0.951 | 0.97 | 0.741 | 
2 | SK-MES-1 | 0.905 | 0.772 | 0.88 | 0.646 | 1.12 | 1.35 | 1.29 | 1.06 | 1.02 | 1.07 | 1.15 | 1.11 | 1.06 | 0.958 | 1.08 | 1.07 | 1.05 | 0.878 | 0.892 | 0.667
3 | SW 1573 | 0.643 | 0.572 | 0.465 | 0.47 | 0.933 | 0.672 | 1.05 | 0.624 | 0.672 | 0.894 | 0.876 | 0.756 | 0.771 | 0.699 | 0.99 | 1.01 | 0.925 | 0.887 | 0.85 | 0.472
4 | UMC-11 | 0.387 | 0.698 | 0.356 | 0.389 | 0.388 | 0.396 | 0.398 | 0.396 | 0.412 | 1.2 | 1.12 | 1.18 | 1.04 | 0.933 | 0.884 | 0.887 | 1.01 | 0.796 | 0.718 | 0.385
